Entries after “also recorded” stand apart in the source; their conditions may differ.
How the values were obtained:
[1] = test system: adult human articular chondrocytes; assay: Survival / apoptosis (Annexin V) of adult articular chondrocytes; assay type: cell-based; details: for chondrocytes survival in adult explants: LIF 50 ng/mL, CRM-423 10 uM
Procedure: FIGS. 28A-28I. Small molecule-mediated activation of a fetal-like molecular and functional phenotype in adult articular cartilage. (FIG. 28A) Adult human articular chondrocytes were incubated with or without RCGD 423 and levels of MYC and pSTAT3 were quantified relative to histone H3. (FIG. 28B) Levels of MYC and pSTAT3 protein were measured in pig adult articular chondrocytes to determine the effects of RCGD 423 in a dose- and time-dependent manner; histone H3 was used as a loading control. (FIG. 28C) Migration of adult human articular chondrocytes in a Transwell® assay was assessed in the presence and absence of RCGD 423. (FIG. 28D) Adult human articular chondrocytes were incubated with or without RCGD 423 in hydrogel for 24 hours and then apoptotic cells were quantitated via flow cytometry for Annexin V. (FIG. 28E) Single human adult articular chondrocytes were cultured for 5 weeks with or without stimulation with RCGD 423. (FIG. 28F) Proliferation in explants of adult pig articular cartilage in the absence or presence of RCGD 423 as shown by EdU incorporation. Explants of adult pig articular cartilage were incubated with EdU in the presence or absence of LIF to detect proliferating cells. Scale bars represent 25 μm. (FIG. 28G) Metabolic activity of human adult articular chondrocytes (ECAR and OCR) was assessed in the presence or absence of RCGD 423; the response in these parameters to stimulation with LIF is shown for comparison. […]
Only early passages of chondrocytes (passage 0-2) were used for experimentation to avoid de-differentiation and loss of cartilage phenotype (Wu et al., 2014). Cartilage explants were made using 1, 2 or 8 mm biopsy punch and wet weight of each explant determined prior to experimentation. […]
TdT-mediated dUTP nick-end labeling (TUNEL) or EdU assays were performed by using in situ cell death detection kit (TUNEL, Roche Diagnostics GmbH, Germany) or Click-iT® Assay Kit obtained from Invitrogen (Carlsbad, Calif.), respectively, as described in the manufacturer's protocol. […] After staining sections were analyzed using fluorescent microscopy. […]

[2] = test system: adult human articular chondrocytes; assay: Transwell migration assay, adult human articular chondrocytes; assay type: cell-based
Procedure: Cells were plated on Millicell 8 μm Transwell® inserts (Millipore, Billerica, Mass.) in 12-well plates (Fisher Scientific, Pittsburgh, Pa.) and stimulated with 10 μM of RCGD 423, 10 μM MYC inhibitor (10058-F4) or 10 μM STAT3 inhibitor (STATTIC) from Tocris Bioscience (Bristol, UK). Cells that migrated across the membranes were quantified by counting after 48 hours of treatment.

[3] = test system: cartilage explants; assay: Cartilage explant culture: tissue expansion, COL2 and GAG content; assay type: cell-based, pig; details: for expansion of cartilage tissue in explants: cartilage explants/plugs in culture
Excerpt: The same stimulatory effect was achieved after treatment of explants with CRMs identified in our small molecule screen. […] This can test if activation of p-STAT3 and c-MYC by selected small molecules CRM-398 and -423 can result in in situ expansion of articular cartilage tissue.
Mature articular cartilage is comprised of chondrocytes contained within lacunae surrounded by dense extracellular matrix. In order for a regenerative response to occur, proliferation, survival and migration must all proceed in concert. […] We designed two sets of experiments to assess the ability of RCGD 423 to operate in this capacity. First, RCGD 423 or cytokines implicated in the growth and differentiation of articular cartilage were incubated with small plugs of cartilage tissue; after 5 weeks, the amount of COL2 and glycosaminoglycans (GAGs) were determined.
Cartilage explants were washed with PBS and then directly digested or stored at […]. For digestion, explants were transferred in digestion buffer composed of 1 mg/mL proteinase K in Tris/Ethylene diamine tetra-acetic acid (EDTA) buffer (pH 7.6) containing 18.5 μg/mL iodoacetamide and 1 μg/mL pepstatin A) for 16-72 h at 56° C. After complete digestion the GAG content was spectrophotometrically determined with 1,9-dimethylmethylene blue chloride staining in the phosphate buffer with ethylene diamine tetra-acetic acid buffer (14.2 g/L Na2HPO4 and 3.72 g/L Na2EDTA, pH 6.5) using an Infinite M1000 Pro microplate reader (Tecan) at an absorbance of 520 nm with chondroitin sulfate as a standard. Amount of total DNA in explants was determined by a CyQuant DNA Kit (Molecular Probes by Life Technology) using Qubit 1.0 fluorometer (Invitrogen).
Cultured explants were first digested in testicular hyaluronidase (0.05% in 50 mM HEPES) for 2 hours at 37° C. 0.5M glacial acetic acid was added to digestion solution to maximize the collagen swelling and provide best pepsin access. Pepsin (250 μg/ml) was then used to further digest the pellets in combination with rotation and occasional gentle vortexing at 4° C. for 18-24 hours. Cold tris base and NaOH were added to the digestion solution to neutralize the acetic acid. Digestion solution was vigorously vortexed immediately, and subsequently rotated at 4° C. overnight to maximize collagen solubility. Tubes were centrifuged to separate undigested tissue and supernatant. Any undigested tissue was subjected to the digestion process again. All supernatants were combined for ELISA. Concentration of collagen II in the supernatant was measured by Type I/II Collagen Detection Kit (Chondrex, Inc, Redmond, Wash.), according to manufacturer's instruction and normalized either to DNA content or wet weight of the explants determined prior to experimentation.

## LIF: interleukin 6 (IL-6)-class cytokine
[1]
  chondrocytes survival in adult explants: increase; also recorded: promoted survival
[2]
  migration / migratory potential: increased
[3]
  expansion of cartilage tissue in explants: significant expansion; also recorded: small expansions

## Brc1ccc(Nc2nc(-c3ccccc3)cs2)cc1 [RCGD 423, N-(4-Bromophenyl)-4-phenyl-1,3-thiazol-2-amine]
[1]
  chondrocytes survival in adult explants: increase
[1]; adult human articular chondrocytes in hydrogel, 24 hours
  apoptosis (Annexin V): decreased
[2]
  migration / migratory potential: increased
[3]; after 5 weeks
  COL2: increases
  glycosaminoglycans (GAGs): increases
[3]
  expansion of cartilage tissue in explants: strong expansion

From patent US11072592B2, “Small molecules that enable cartilage rejuvenation” (The Regents of the University of California, priority 2015, dated 2021)
